Results reported in US20060269497A1, “Trichogenous agent” (YAMAHA HATSUDOKI KABUSHIKI KAISHA, priority 2005, published 2006).

Columns and labels:
[1] = system: hair regrowth in telogen-phase C3H/HeN Slc mice; assay: Examination of trichogenous effect (hair regrowth on shaved back of mice); type: in vivo; conditions: 10 mg/mL test solution
Protocol: The trichogenous effect in mice of the astaxanthin monoester obtained in Preparation Example 1 was examined. The astaxanthin monoester obtained in Preparation Example 1 was dissolved in 20% (v/v) ethanol-containing a-tocopherol to prepare a 10 mg/mL astaxanthin monoester test solution. Male 7-week-old C3H/HeN Slc (SPF) mice were divided into three groups, i.e., a test group, a positive control group, and a negative control group, of 10 each. It should be noted that 45 to 95-day-old C3H mice are in the telogen phase of the hair cycle. Hairs were shaved from a site measuring 5 cm x 3 cm on the back of each mouse, and the above-described test solution was applied to that site in a dosage of 0.05 mL once a day for 18 days to observe the conditions of hair regrowth. In the positive control group, 1% (w/v) minoxidil (in 50% (v/v) ethanol), and in the negative control group, 50% (v/v) ethanol were applied. The conditions of hair regrowth were evaluated, using the following scoring criteria, expressed in terms of percentage of the surface area of the test site where the observed change occurred.
1: skin changed to gray (in less than 50% of area)
2: skin changed to gray (in 50% or more of area) and hair regrowth was observed (in less than 50% of area)
3: skin changed to gray (in 50% or more of area) and hair regrowth was observed (in 50% or more but less than 80% of area)
4: hair regrowth was observed distinctly (in 80% or more but less than 100% of area)
5: hair regrowth was observed distinctly (in 100% of area)

[2] = system: Human umbilical vein endothelial cells (HUVECs); assay: Measurement of 50% lethal concentration for HUVEC (alamarBlue); type: cell-based; conditions: 72 hours incubation, 250 μM = maximum concentration dissolved in DMSO
Protocol: Human umbilical vein endothelial cells (HUVECs) (ATCC CRL-1730) were obtained from American Type Culture Collection and precultivated in an Endothelial Cell Growth Medium (CELL APPLICATIONS, USA) containing 10% bovine fetal serum supplemented with 1% Antibiotic-Antimycotic solution (GIBCO BRL, USA) under a 5% CO2 atmosphere at 37° C.
A Matrigel matrix (BD Biosciences, USA) was melted and kept at 4° C. on ice, and then, 50 μL of the matrix were transferred to each well of a 96-well tissue culture plate. The plate was incubated at 37° C. for at least one hour to solidify the matrix solution. […]
After the incubation, 20 μL of a 90% alamarBlue reagent were added to individual wells, and incubated for an additional 6 hours. Then, the fluorescence intensity of each well was measured at an excitation wavelength of 530 nm and an emission wavelength of 590 nm using a Spectrafluor Plus plate reader to count the number of living cells. […] The 50% lethal concentration was calculated as the concentration at which the number of living cells was 50% of the number of cells at the start of the experiment.

What does the source list for astaxanthin monoester?
trichogenous effect (hair regrowth scoring) compared to negative control group ([1]; 0.05 mL applied once a day for 18 days to shaved back of male C3H/HeN mice, vs 50% ethanol): markedly superior trichogenous effect; appearance (onset) of trichogenous effect compared to positive control group ([1]; 0.05 mL once a day for 18 days, topical, mice, vs 1% (w/v) minoxidil): appeared a little later than in the positive control group; rate of progress of hair regrowth after the hairs begun to grow ([1]; 0.05 mL once a day for 18 days, topical, mice, vs 1% minoxidil and negative control): higher than that in the positive control group; LC50 (50% lethal concentration) [2]: ≥ 250 µM
